{
  "source": "patent US20130090327A1",
  "about": "“Inhibitors of Protein Tyrosine Kinase Activity” (METHYLGENE INC., priority 2011, published 2013)",
  "key": {"VEGFR2 (KDR)": {"target": "T1, VEGFR2 (KDR) (Homo sapiens, UniProt P35968)", "T1 construct": "made in house; host or cells: Sf9 cells (Spodoptera frugiperda), baculovirus (Bac-to-Bac)", "T1 sequence (P35968 806-1356)": "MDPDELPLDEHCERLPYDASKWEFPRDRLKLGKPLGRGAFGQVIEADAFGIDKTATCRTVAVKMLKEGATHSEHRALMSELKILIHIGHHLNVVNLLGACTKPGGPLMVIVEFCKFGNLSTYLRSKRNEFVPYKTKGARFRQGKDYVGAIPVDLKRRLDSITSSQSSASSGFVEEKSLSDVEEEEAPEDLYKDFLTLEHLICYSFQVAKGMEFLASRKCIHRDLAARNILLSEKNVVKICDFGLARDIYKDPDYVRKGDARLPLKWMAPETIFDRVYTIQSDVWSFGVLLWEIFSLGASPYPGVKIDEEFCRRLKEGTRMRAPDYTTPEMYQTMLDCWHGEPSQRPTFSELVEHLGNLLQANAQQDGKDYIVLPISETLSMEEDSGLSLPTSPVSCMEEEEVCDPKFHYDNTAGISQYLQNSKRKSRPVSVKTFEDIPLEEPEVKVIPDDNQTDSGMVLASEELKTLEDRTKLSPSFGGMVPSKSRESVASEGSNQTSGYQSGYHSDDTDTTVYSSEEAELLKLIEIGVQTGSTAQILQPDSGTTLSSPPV", "experiment": "In Vitro Receptor Tyrosine Kinase Assay (VEGF Receptor KDR)", "format": "biochemical", "details": "recombinant GST-VEGFR2 806-1356, DELFIA assay, ATP 0.6 uM, enzyme 5 nM; read-out: VEGFR_IC50_UM", "text": "In Vitro Receptor Tyrosine Kinase Assay (VEGF Receptor KDR)\nThis test measures the ability of compounds to inhibit the enzymatic activity of recombinant human VEGF receptor enzymatic activity.\nA 1.6-kb cDNA corresponding to the catalytic domain of VEGFR2 (KDR) (Genbank accession number AF035121 amino acid 806 to 1356) is cloned into the Pst I site of the pDEST20 Gateway vector (Invitrogen) for the production of a GST-tagged version of that enzyme. This construct is used to generate recombinant baculovirus using the Bac-to-Bac™ system according to the manufacturer's instructions (Invitrogen).\nThe GST-VEGFR2806-1356 protein is expressed in Sf9 cells (Spodoptera frugiperda) upon infection with recombinant baculovirus construct. Briefly, Sf9 cells grown in suspension and maintained in serum-free medium (Sf900 II supplemented with gentamycin) at a cell density of about 2×10^6 cells/ml are infected with the above-mentioned viruses at a multiplicity of infection (MOI) of 0.1 during 72 hours at 27° C. with agitation at 120 rpm on a rotary shaker. Infected cells are harvested by centrifugation at 398 g for 15 min. Cell pellets are frozen at […] until purification is performed.\nAll steps described in cell extraction and purification are performed at 4° C. Frozen Sf9 cell pellets infected with the GST-VEGFR2806-1356 recombinant baculovirus are thawed and gently resuspended in Buffer A (PBS pH 7.3 supplemented with 1 μg/ml pepstatin, 2 μg/ml Aprotinin and leupeptin, 50 μg/ml PMSF, 50 μg/ml TLCK and 10 μM E64 and 0.5 mM DTT) using 3 ml of buffer per gram of cells. Suspension is Dounce homogenized and 1% Triton X-100 is added to the homogenate after which it is centrifuged at 22500 g, 30 min., 4° C. The supernatant (cell extract) is used as starting material for purification of GST-VEGFR2806-1356.\nThe supernatant is loaded onto a GST-agarose column (Sigma) equilibrated with PBS pH 7.3. Following a four column volume (CV) wash with PBS pH 7.3+1% Triton X-100 and 4 CV wash with buffer B (50 mM Tris pH 8.0, 20% glycerol and 100 mM NaCl), bound proteins are step eluted with 5 CV of buffer B supplemented with 5 mM DTT and 15 mM glutathion. GST-VEGFR2806-1356 enriched fractions from this chromatography step are pooled based on U.V. trace i.e. fractions with high O.D.280. Final GST-VEGFR2806-1356 protein preparations concentrations are about 0.7 mg/ml with purity approximating 70%. Purified GST-VEGFR2806-1356 protein stocks are aliquoted and frozen at −80° C. prior to use in enzymatic assay.\nInhibition of VEGFR/KDR is measured in a DELFIA™ assay (Perkin Elmer). The substrate poly(Glu4,Tyr) is immobilized onto black high-binding polystyrene 96-well plates. The coated plates are washed and stored at 4° C. During the assay, the enzyme is pre-incubated with inhibitor and Mg-ATP on ice in polypropylene 96-well plates for 4 minutes, and then transferred to the coated plates. The subsequent kinase reaction takes place at 30° C. for 10-minutes. ATP concentrations in the assay are 0.6 uM for VEGFR/KDR (2× the Km). Enzyme concentration is 5 nM. After incubation, the kinase reactions are quenched with EDTA and the plates are washed. Phosphorylated product is detected by incubation with Europium-labeled anti-phosphotyrosine MoAb. After washing the plates, bound MoAb is detected by time-resolved fluorescence in a Gemini SpectraMax reader (Molecular Devices). Compounds are evaluated over a range of concentrations, and IC50 values (concentration of compounds giving 50% inhibition of enzymatic activity) are determined."}, "[1]": {"system": "choroidal neovascularization (CNV)", "experiment": "In Vivo Choroidal Neovascularization (CNV) Model", "parameters": "species or system Brown-Norway rats", "details": "for CNV area, average: group average, Day 10, rat; for CNV area, individual animal: injection on Day 3, measured Day 10, rat; for CNV area % of control / inhibition (CNV area): versus vehicle group, rat", "text": "In Vivo Choroidal Neovascularization (CNV) Model\nThis test measures the capacity of compounds to inhibit CNV progression. CNV is the main cause of severe vision loss in patients suffering from age-related macular degeneration (AMD).\nMale Brown-Norway rats (Charles River Japan Co., Ltd.) were used in these studies.\nRats were anesthetized by intraperitoneal injection of pentobarbital, and the right pupil was dilated with 0.5% tropicamide and 0.5% phenylephrine hydrochloride. The right eye received 6 laser burns between retinal vessels using a slit lamp delivery system of Green laser Photocoagulator (Nidex Inc., Japan), and microscope slide glass with 10 mg/mL hyaluronic acid (SIGMA) used as a contact lens. The laser power was 200 mW for 0.1 second and spot diameter was 100 μm. At the time of laser burn, bubble production was observed; which is an indication of rupture of Bruch's membrane which is important for CNV generation.\nAfter animals were anesthetized, and the right pupil dilated (as mentioned above), the right eye of the animal received the compound or vehicle by an injection (3 μL/eye) at doses of 0.3 to 30 nmol/eye on Day 3. The compounds were dissolved or suspended in CBS, PBS, or other adequate vehicles before injection.\nOn Day 10, the animals were anesthetized with ether, and high molecular weight fluorescein isothiocyanate (FITC)-dextran (SIGMA, 2×106 MW) was injected via a tail vein (20 mg/rat). About 30 min after FITC-dextran injection, animals were euthanized by ether or carbon dioxide, and the eyes were removed and fixed with 10% formaline neutral buffer solution. After over 1 hour of fixation, RPE-choroid-sclera flat mounts were obtained by removing comea, lens and retina from the eyeballs. The flat mounts were mounted in 50% glycerol on a microscope slide, and the portion burned by laser was photographed using a fluorescence microscope (Nikon Corporation, excitation filter: 465-495 nm, absorption filter: 515-555 nm). The CNV area was obtained by measurement of hyper-fluorescence area observed on the photograph using Scion image.\nThe average CNV area of 6 burns was used as an individual value of CNV area, and the average CNV area of compound treated group was compared with that of the vehicle-treated group."}},
  "note": "“And” between values parts separate entries of the source, which are not always exact repeats. Equal entries are not always repeated.",
  "data": [
    {"smiles": "COCCN(Cc1ccc(-c2cc3nccc(Oc4ccc(Nc5nc6cc(Cl)ccc6[nH]5)cc4F)c3s2)nc1)C(C)=O", "note": "[Compound 64]", "values": [
      {"measurement": "IC50", "setting": "VEGFR2 (KDR)", "result": 31, "unit": "nM"},
      {"measurement": "CNV area, average", "setting": "[1]; 0.3 nmol/eye", "result": 0.085, "unit": "mm^2"},
      {"measurement": "CNV area, individual animal", "setting": "[1]; 0.3 nmol/eye", "result": "0.091 mm^2 and 0.094 mm^2 and 0.045 mm^2 and 0.050 mm^2 and 0.116 mm^2 and 0.147 mm^2 and 0.069 mm^2 and 0.084 mm^2 and 0.072 mm^2"},
      {"measurement": "CNV area % of control", "setting": "[1]; 0.3 nmol/eye", "result": 105.6, "unit": "%"},
      {"measurement": "inhibition (CNV area)", "setting": "[1]; 0.3 nmol/eye", "result": "−5.6"},
      {"measurement": "CNV area, average", "setting": "[1]; 1 nmol/eye", "result": 0.077, "unit": "mm^2"},
      {"measurement": "CNV area, individual animal", "setting": "[1]; 1 nmol/eye", "result": "0.045 mm^2 and 0.092 mm^2 and 0.101 mm^2 (2×) and 0.088 mm^2 and 0.061 mm^2 and 0.109 mm^2 and 0.056 mm^2 and 0.040 mm^2"},
      {"measurement": "CNV area % of control", "setting": "[1]; 1 nmol/eye", "result": 95.3, "unit": "%"},
      {"measurement": "inhibition (CNV area)", "setting": "[1]; 1 nmol/eye", "result": 4.7},
      {"measurement": "CNV area, average", "setting": "[1]; 3 nmol/eye", "result": 0.065, "unit": "mm^2"},
      {"measurement": "CNV area, individual animal", "setting": "[1]; 3 nmol/eye", "result": "0.070 mm^2 (2×) and 0.019 mm^2 and 0.081 mm^2 and 0.084 mm^2 and 0.062 mm^2 and 0.056 mm^2 and 0.086 mm^2 and 0.054 mm^2"},
      {"measurement": "CNV area % of control", "setting": "[1]; 3 nmol/eye", "result": 80.0, "unit": "%"},
      {"measurement": "inhibition (CNV area)", "setting": "[1]; 3 nmol/eye", "result": 20.0},
      {"measurement": "CNV area, average", "setting": "[1]; 10 nmol/eye", "result": 0.045, "unit": "mm^2"},
      {"measurement": "CNV area, individual animal", "setting": "[1]; 10 nmol/eye", "result": "0.030 mm^2 and 0.003 mm^2 and 0.051 mm^2 and 0.058 mm^2 and 0.064 mm^2 and 0.035 mm^2 and 0.097 mm^2 and 0.039 mm^2 and 0.032 mm^2"},
      {"measurement": "CNV area % of control", "setting": "[1]; 10 nmol/eye", "result": 56.2, "unit": "%"},
      {"measurement": "inhibition (CNV area)", "setting": "[1]; 10 nmol/eye", "result": 43.8},
      {"measurement": "CNV area, average", "setting": "[1]; 30 nmol/eye", "result": 0.036, "unit": "mm^2"},
      {"measurement": "CNV area, individual animal", "setting": "[1]; 30 nmol/eye", "result": "0.047 mm^2 and 0.031 mm^2 and 0.036 mm^2 and 0.048 mm^2 and 0.037 mm^2 and 0.027 mm^2 (2×) and 0.051 mm^2 and 0.019 mm^2"},
      {"measurement": "CNV area % of control", "setting": "[1]; 30 nmol/eye", "result": 44.4, "unit": "%"},
      {"measurement": "inhibition (CNV area)", "setting": "[1]; 30 nmol/eye", "result": 55.6}
    ]}
  ]
}
